Assay results published in ChEMBL document CHEMBL1201862, “PubChem BioAssay data set” (2004).
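Tested at 5 concentrations; 48 h exposure; 96-well plates; endpoints linearly interpolated, else capped at highest concentration. The concentration for 50% growth inhibition is given as GI50.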 Calls of active or inactive are those of the source. No stated cut-off is given here; in the data, active = GI50 up to about 1.1 µM and inactive = higher.

How the values were obtained:
Experiment in all cases: NCI anticancer screen, dose series, 48 h
SW-620 = tested on: SW-620
PC-3 = tested on: PC-3
NCI-H522 = tested on: NCI-H522
ACHN = tested on: ACHN
MOLT-4 = tested on: MOLT-4
SN12C = tested on: SN12C
OVCAR-3 = tested on: OVCAR-3
CAKI-1 = tested on: CAKI-1
UACC-257 = tested on: UACC-257
DU-145 = tested on: DU-145
EKVX = tested on: EKVX
MDA-MB-231 = tested on: MDA-MB-231
HT-29 = tested on: HT-29
NCI-H226 = tested on: NCI-H226
NCI/ADR-RES = tested on: NCI/ADR-RES
BT-549 = tested on: BT-549
COLO 205 = tested on: COLO 205
HCC 2998 = tested on: HCC 2998
SK-MEL-5 = tested on: SK-MEL-5

Measured: GI50

O=S(=O)(O)SCCNCCCCCC1CCCCC1
inactive: SW-620 7.78 µM | PC-3 8.02 µM | NCI-H522 18.4 µM | ACHN 16.1 µM | MOLT-4 8.05 µM | SN12C 6.12 µM | OVCAR-3 5.87 µM | CAKI-1 19 µM | UACC-257 6.61 µM | DU-145 6.3 µM | EKVX 9.73 µM | MDA-MB-231 14.8 µM | HT-29 6.9 µM | NCI-H226 11.5 µM | NCI/ADR-RES 16.7 µM | BT-549 14.9 µM | COLO 205 16.6 µM | HCC 2998 5.41 µM | SK-MEL-5 15.8 µM

CN1CCC2(CC1)C(=O)N(N1CCCCCC1)C(=O)N2c1ccccc1
inactive: SW-620 > 100 µM | PC-3 77.8 µM | NCI-H522 57.7 µM | ACHN > 100 µM | MOLT-4 > 100 µM | SN12C > 100 µM | OVCAR-3 > 100 µM | CAKI-1 > 100 µM | UACC-257 > 100 µM | DU-145 > 100 µM | EKVX > 100 µM | MDA-MB-231 > 100 µM | HT-29 60.5 µM | NCI-H226 > 100 µM | NCI/ADR-RES > 100 µM | BT-549 > 100 µM | COLO 205 > 100 µM | HCC 2998 > 100 µM | SK-MEL-5 > 100 µM

C[C@@H]1CC[C@@]2(OC1)O[C@H]1[C@@H](O)[C@H]3[C@@H]4CC[C@H]5C[C@@H](O[C@@H]6O[C@H](CO)[C@H](O[C@@H]7O[C@H](CO)C(O)[C@H](O[C@@H]8OC[C@@H](O)[C@H](O)[C@H]8O)[C@H]7O[C@@H]7O[C@H](CO)[C@H](O)[C@H](O[C@@H]8O[C@H](CO)[C@@H](O)[C@H](O)[C@H]8O)[C@H]7O)[C@H](O)[C@H]6O)[C@H](O)C[C@]5(C)[C@H]4CC[C@]3(C)[C@H]1[C@@H]2C (some centres not stated) [DIGITONIN]
inactive: SW-620 5.52 µM | PC-3 2.57 µM | NCI-H522 2.06 µM | ACHN 1.52 µM | MOLT-4 3.9 µM | SN12C 2.97 µM | OVCAR-3 1.55 µM | CAKI-1 1.39 µM | UACC-257 8.38 µM | DU-145 2.05 µM | EKVX 3.13 µM | MDA-MB-231 2.48 µM | HT-29 3.51 µM | NCI-H226 1.51 µM | NCI/ADR-RES 3.89 µM | BT-549 1.63 µM | COLO 205 1.68 µM | HCC 2998 1.66 µM | SK-MEL-5 4.5 µM
